Measured values as given in patent US10287305B2, “Substituted piperidine compound and use thereof” (Takeda Pharmaceutical Company Limited, priority 2016, dated 2019).
pEC50: −log10 of the molar value. Read-outs that look alike come from different tables or passages of the source.

Key:
[1] = target: human OX2 receptor (Homo sapiens (Human), UniProt O43614); assay: Measurement of orexin type 2 receptor agonist activity (Experimental Example 2-2, FDSS uCELL, calcium indicator); type: cell-based; conditions: CHO cells expressing human OX2 receptor; for pEC50: Fluo-4 AM
human OX2 receptor, sequence (O43614 whole entry): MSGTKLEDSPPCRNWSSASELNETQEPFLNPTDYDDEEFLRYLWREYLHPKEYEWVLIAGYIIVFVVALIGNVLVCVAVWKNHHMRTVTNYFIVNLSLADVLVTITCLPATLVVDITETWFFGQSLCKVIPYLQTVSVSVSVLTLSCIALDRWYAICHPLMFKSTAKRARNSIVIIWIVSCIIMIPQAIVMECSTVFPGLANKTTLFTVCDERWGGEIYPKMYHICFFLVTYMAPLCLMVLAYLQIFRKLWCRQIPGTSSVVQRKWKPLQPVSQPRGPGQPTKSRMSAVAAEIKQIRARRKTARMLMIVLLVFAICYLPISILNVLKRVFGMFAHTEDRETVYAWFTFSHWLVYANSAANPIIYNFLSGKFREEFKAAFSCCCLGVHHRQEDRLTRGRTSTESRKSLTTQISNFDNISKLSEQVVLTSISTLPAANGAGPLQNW
Procedure: CHO cells forcibly expressing human OX2 receptor were seeded in each well of 384 well black transparent bottom plate (BD Falcon) at 7,500 cells/well, and cultured for one day in a 5% CO2 incubator at 37° C. […] The plate was stood for 30 min in a 5% CO2 incubator at 37° C., and further stood at room temperature for 30 min. A test compound prepared by diluting with assay buffer B (HESS, 20 mM HEPES, 0.1% BSA) was added at 10 μL/well, and the fluorescence value was measured by FDSSμCELL (Hamamatsu Photonics K.K.) every one sec for 1 min, and thereafter every two sec for 1 min sec.

[2] = test system: C57BL/6J mice; assay: Measurement of locomotor activity in mice (Experimental Example 3); type: in vivo, mouse; conditions: male C57BL/6J mice; 30 mg/kg intraperitoneal; measured for 2 hr after administration
Procedure: Increased locomotor activity is one of the indexes of arousal action together with increase in wakefulness time, increase in body temperature, enhancement of cardiovascular system parameters and the like. In this Experimental Example, the arousal action effective for the treatment of narcolepsy was evaluated by measuring the locomotor activity of mouse. Male C57BL/6J mice (6-10 weeks old, Japan CLEA) were used for the measurement of locomotor activity (8 mice each group), infrared rays were irradiated from the top part of the cage, and a locomotor activity measuring device (MDC system—Neurosciences Idea) capable of quantifying the number of times the mice pass through the irradiated rays was used. To be specific, the mice were placed in the cage of the device and acclimatized for 4 hours or longer, and a test compound was intraperitoneally administered (dose: 30 mg/kg body weight). The locomotor activity was measured for 2 hr after the administration. In the test compound group, a solution obtained by dissolving the test compound in a solvent (composition: 10% DMSO, 10% Cremophor EL (trade name), 20% polyethylene glycol 400 (20% PEG400, 60% H2O)) was administered to mice. On the other hand, in the control group, only the aforementioned solvent not containing the test compound was administered to mice.

[3] = target: human orexin type 2 receptor (hOX2R) (Homo sapiens (Human), UniProt O43614); assay: Measurement of orexin type 2 receptor agonist activity (Experimental Example 2-1, FLIPR TETRA, intracellular Ca2+); type: cell-based; conditions: CHO dhfr- cells expressing hOX2R
human orexin type 2 receptor (hOX2R), sequence (O43614 whole entry): as above

[4] = DMSO = 0%, reference OX-A at 10 nM
[5] = CHO, DMSO = 0%, reference OX-A at 10 nM
[6] = agonist activity, 10 nM human orexin B = 100%
[7] = value at 30 uM concentration, orexin B as full agonist = 100%
[8] = FLIPR TETRA, Fluo-4AM, read-out: Emax (%)

Row | pEC50 [1] | Emax [1, 5] | Compound | other results
1 | 6.54 | 109% | COC(=O)N1CCC[C@H](NS(C)(=O)=O)[C@@H]1CO[C@H]1CC[C@@H](c2ccc(OC)cc2)CC1 (relative stereo) [Example 344, methyl cis-2-(((cis-4-(4-methoxyphenyl)cyclohexyl)oxy)-methyl)-3-((methylsulfonyl)amino)piperidine-1-carboxylate] | 
2 | 7.68 | 105% | COC(=O)N1CCC[C@H](NS(C)(=O)=O)[C@@H]1CO[C@H]1CC[C@@H](c2ccc(O)cc2)CC1 (relative stereo) [Example 345, methyl cis-2-(((cis-4-(4-hydroxyphenyl)cyclohexyl)oxy)-methyl)-3-((methylsulfonyl)amino)piperidine-1-carboxylate] | 
3 | 6.59 | 94% | COC(=O)N1CCC[C@H](NS(C)(=O)=O)[C@@H]1CO[C@H]1CC[C@@H](c2ccccc2O)CC1 (relative stereo) [Example 347, methyl cis-2-(((cis-4-(2-hydroxyphenyl)cyclohexyl)oxy)-methyl)-3-((methylsulfonyl)amino)piperidine-1-carboxylate] | 
4 | 5.89 | 100% | O=S(=O)(N[C@H]1CCCN[C@H]1CO[C@H]1CC[C@@H](c2ccccc2)CC1)C1CC1 (relative stereo) [Example 353, N-(cis-2-(((cis-4-phenylcyclohexyl)oxy)methyl)-piperidin-3-yl)cyclopropanesulfonamide] | 
5 | 7.29 | 104% | CC(=O)N1CCC[C@H](NS(=O)(=O)C2CC2)[C@@H]1CO[C@H]1CC[C@@H](c2ccccc2)CC1 (relative stereo) [Example 354, N-(cis-1-acetyl-2-(((cis-4-phenylcyclohexyl)oxy)methyl)-piperidin-3-yl)cyclopropanesulfonamide] | 
6 | 9.36 | 108% | CCNC(=O)N1CCC[C@H](NS(=O)(=O)C2CC2)[C@@H]1CO[C@H]1CC[C@@H](c2ccccc2)CC1 (relative stereo) [Example 355, cis-3-((cyclopropylsulfonyl)amino)-N-ethyl-2-(((cis-4-phenylcyclohexyl)oxy)methyl)-piperidine-1-carboxamide] | 
7 | 7.68 | 98% | CC(C)OC(=O)N1CCC[C@H](NS(=O)(=O)C2CC2)[C@@H]1COC1CCN(c2ncccn2)CC1 (relative stereo) [Example 356, isopropyl cis-3-((cyclopropylsulfonyl)amino)-2-(((1-(pyrimidin-2-yl)piperidin-4-yl)oxy)methyl)piperidine-1-carboxylate] | 
8 | 7.08 | 101% | CC(=O)N1CCC[C@H](NS(=O)(=O)C2CC2)[C@@H]1CO[C@H]1CC[C@@H](C(C)C)CC1 (relative stereo) [Example 357, N-(cis-1-acetyl-2-(((cis-4-isopropylcyclohexyl)oxy)methyl)-piperidin-3-yl)cyclopropanesulfonamide] | 
9 | 8.96 | 97% | CNC(=O)N1CCC[C@H](NS(=O)(=O)C2CC2)[C@@H]1CO[C@H]1CC[C@@H](c2ccccc2)CC1 (relative stereo) [Example 359, cis-3-((cyclopropylsulfonyl)amino)-N-methyl-2-(((cis-4-phenylcyclohexyl)oxy)methyl)-piperidine-1-carboxamide] | 
10 | 6.68 | 98% | O=C(OCC(F)(F)F)N1CCC[C@H](NS(=O)(=O)C2CC2)[C@@H]1COC1CCN(c2ncccn2)CC1 (relative stereo) [Example 360, 2,2,2-trifluoroethyl cis-3-((cyclopropylsulfonyl)amino)-2-(((1-(pyrimidin-2-yl)piperidin-4-yl)oxy)methyl)piperidine-1-carboxylate] | 
11 | 6.41 | 95% | CC(OC(=O)N1CCC[C@H](NS(=O)(=O)C2CC2)[C@@H]1COC1CCN(c2ncccn2)CC1)C(F)(F)F (relative stereo) [Example 362, 1,1,1-trifluoropropan-2-yl cis-3-((cyclopropylsulfonyl)amino)-2-(((1-(pyrimidin-2-yl)piperidin-4-yl)oxy)methyl)piperidine-1-carboxylate] | 
12 |  |  | CCNC(=O)N1CCC[C@H](NS(C)(=O)=O)[C@@H]1CO[C@H]1CC[C@@H](C(C)C)CC1 [Example 2, (2R,3S)—N-ethyl-2-(((cis-4-isopropylcyclohexyl)oxy)methyl)-3-((methylsulfonyl)amino)piperidine-1-carboxamide] | locomotor activity (counts) (mean ± S.E.M., n = 8) [2]: 817.00 counts; pEC50 [3, 6]: 8.72; Emax at 30 µM [3, 7]: 99%
13 |  |  | COC(=O)N1CCC[C@H](NS(C)(=O)=O)[C@@H]1CO[C@H]1CC[C@@H](c2ccccc2)CC1 [Example 5, Methyl (2R,3S)-3-((methylsulfonyl)amino)-2-(((cis-4-phenylcyclohexyl)oxy)methyl)piperidine-1-carboxylate] | locomotor activity (counts) (mean ± S.E.M., n = 8) [2]: 1175.25 counts; pEC50 [3, 6]: 8.66; Emax at 30 µM [3, 7]: 98%
14 |  |  | COC(=O)N1CCC[C@H](NS(C)(=O)=O)[C@@H]1CO[C@H]1CC[C@@H](c2ccccc2C(F)F)CC1 [Example 324, methyl (2R,3S)-2-(((cis-4-(2-(difluoromethyl)phenyl)cyclohexyl)-oxy)methyl)-3-((methylsulfonyl)amino)piperidine-1-carboxylate] | Emax (%) ([3]; FLIPR TETRA, Fluo-4AM): 95%
15 |  |  | COC(=O)N1CCC[C@H](NS(C)(=O)=O)[C@@H]1CO[C@H]1CC[C@@](O)(c2ccccc2)CC1 [Example 331, methyl cis-2-(((trans-4-hydroxy-4-phenylcyclohexyl)oxy)methyl)-3-((methylsulfonyl)amino)piperidine-1-carboxylate] | Emax [3, 8]: 98%
16 |  |  | CS(=O)(=O)N[C@H]1CCCN(C(=O)CO)[C@H]1CO[C@H]1CC[C@@H](c2c(F)ccc(F)c2F)CC1 [Example 340, N-((2R,3S)-1-glycoloyl-2-(((cis-4-(2,3,6-trifluorophenyl)cyclohexyl)oxy)methyl)piperidin-3-yl)methanesulfonamide] | locomotor activity (counts) (mean ± S.E.M., n = 8) [2]: 979.25 ± 109.96 counts; pEC50 ([3]; FLIPR TETRA, Fluo-4AM): 8.60; Emax [3, 8]: 109%
17 | 8.02 |  | COC(=O)N1CCC[C@H](NS(C)(=O)=O)[C@@H]1CO[C@H]1CC[C@@H](c2ccc(O)cc2)CC1 [Example 348, methyl (2R,3S)-2-(((cis-4-(4-hydroxyphenyl)cyclohexyl)oxy)-methyl)-3-((methylsulfonyl)amino)piperidine-1-carboxylate] | Emax (%) [1, 4]: 92%
18 | 5.80 | 116% | CCNC(=O)N1CCC[C@H](NS(C)(=O)=O)[C@@H]1CO[C@H]1CCC[C@@H]1Oc1ccccc1 [Example 350, cis-N-ethyl-3-((methylsulfonyl)amino)-2-((((1S,2S)-2-phenoxycyclopentyl)oxy)methyl)-piperidine-1-carboxamide] | 
19 |  |  | N-(2-(((cis-4-(3-fluorophenyl)cyclohexyl)oxy)methyl)pyridin-3-yl)methanesulfonamide [Example 15] | pEC50 [3, 6]: 6.55; Emax [3, 7]: 105%

Row | Compound | pEC50 [1] | Emax [1, 5] | other results
20 | COC(=O)N1CCC[C@H](NS(C)(=O)=O)[C@@H]1CO[C@H]1CC[C@@H](c2cccc(O)c2)CC1 (relative stereo) [Example 343, methyl cis-2-(((cis-4-(3-hydroxyphenyl)cyclohexyl)oxy)-methyl)-3-((methylsulfonyl)amino)piperidine-1-carboxylate] | 6.82 |  | Emax [1, 4]: 109%
